The source made the active and inactive calls. The rule behind the calls is not given here.
Test system: CCRIS mutagenicity, Ames/micronucleus/aberration tests
Experiment: CCRIS mutagenicity studies
Settings: Test System: AMES SALMONELLA TYPHIMURIUM
[1] = Strain/Indicator: TA98, Metabolic Activation: NONE, Method: PREINCUBATION
[2] = Strain/Indicator: TA100, Metabolic Activation: NONE, Method: PREINCUBATION

Compound: O=c1oc2ccc([N+](=O)[O-])cc2c2ccccc12
- mutagenic call (Strain/Indicator: TA98(1,8-DNP6), Metabolic Activation: NONE, Method: MICROSUSPENSION): active; positive
- mutagenic call (Strain/Indicator: TA98(1,8-DNP6), Metabolic Activation: NONE, Method: PREINCUBATION): active; positive
- mutagenic call (Strain/Indicator: TA98(1,8-DNP6), Metabolic Activation: NONE, Method: STANDARD PLATE): active; positive
- mutagenic call (Strain/Indicator: TA98(NR), Metabolic Activation: NONE, Method: MICROSUSPENSION): active; positive
- mutagenic call (Strain/Indicator: TA98(NR), Metabolic Activation: NONE, Method: PREINCUBATION): inactive; negative
- mutagenic call (Strain/Indicator: TA98(NR), Metabolic Activation: NONE, Method: STANDARD PLATE): active; positive
- mutagenic call (Strain/Indicator: TA98(NR), Metabolic Activation: RAT LIVER S-9 (15%), Method: PREINCUBATION): active; positive
- mutagenic call (Strain/Indicator: TA98(NR), Metabolic Activation: RAT LIVER S-9, 3-METHYLCHOLANTHRENE (15%), Method: PREINCUBATION): active; positive
- mutagenic call (Strain/Indicator: TA98(NR), Metabolic Activation: RAT LIVER S-9, BETA-NAPHTHAFLAVONE (15%), Method: PREINCUBATION): active; positive
- mutagenic call (Strain/Indicator: TA98(NR), Metabolic Activation: RAT LIVER S-9, PCB (10%), Method: PREINCUBATION): active; positive
- mutagenic call (Strain/Indicator: TA98(NR), Metabolic Activation: RAT LIVER S-9, PHENOBARBITAL (15%), Method: PREINCUBATION): active; positive
- mutagenic call (Strain/Indicator: TA98(NR), Metabolic Activation: RAT, LIVER, S-9, AROCLOR 1254, Method: STANDARD PLATE): active; positive
- mutagenic call (Strain/Indicator: TA98, Metabolic Activation: NONE, Method: MICROSUSPENSION): active; positive
- mutagenic call [1]: active; positive
- mutagenic call (Strain/Indicator: TA98, Metabolic Activation: NONE, Method: STANDARD PLATE): active; positive
- mutagenic call (Strain/Indicator: TA98, Metabolic Activation: RAT, LIVER, S-9, AROCLOR 1254, Method: MICROSUSPENSION): active; positive
- mutagenic call (Strain/Indicator: TA98, Metabolic Activation: RAT, LIVER, S-9, AROCLOR 1254, Method: STANDARD PLATE): active; positive
- mutagenic call (Strain/Indicator: TA100, Metabolic Activation: NONE, Method: MICROSUSPENSION): active; positive
- mutagenic call [2]: active; positive
- mutagenic call (Strain/Indicator: TA100, Metabolic Activation: NONE, Method: STANDARD PLATE): active; positive
- mutagenic call (Strain/Indicator: TA100, Metabolic Activation: RAT LIVER S-9, 3-METHYLCHOLANTHRENE (15%), Method: PREINCUBATION): active; positive
- mutagenic call (Strain/Indicator: TA100, Metabolic Activation: RAT, LIVER, S-9, AROCLOR 1254, Method: MICROSUSPENSION): active; positive
- mutagenic call (Strain/Indicator: TA100, Metabolic Activation: RAT, LIVER, S-9, AROCLOR 1254, Method: STANDARD PLATE): active; positive
- mutagenic call (Strain/Indicator: TA1535, Metabolic Activation: NONE, Method: STANDARD PLATE): active; positive
- mutagenic call (Strain/Indicator: TA1535, Metabolic Activation: RAT, LIVER, S-9, AROCLOR 1254, Method: STANDARD PLATE): active; positive
- mutagenic call (Strain/Indicator: TA1537, Metabolic Activation: NONE, Method: STANDARD PLATE): active; positive
- mutagenic call (Strain/Indicator: TA1537, Metabolic Activation: RAT, LIVER, S-9, AROCLOR 1254, Method: STANDARD PLATE): active; positive
- mutagenic call (Strain/Indicator: TA1538, Metabolic Activation: NONE, Method: STANDARD PLATE): active; positive
- mutagenic call (Strain/Indicator: TA1538, Metabolic Activation: RAT, LIVER, S-9, AROCLOR 1254, Method: STANDARD PLATE): active; positive
- mutagenic call (Strain/Indicator: TA7001, Metabolic Activation: NONE, Method: PREINCUBATION): inactive; negative
- mutagenic call (Strain/Indicator: TA7001, Metabolic Activation: RAT LIVER S-9, 3-METHYLCHOLANTHRENE (15%), Method: PREINCUBATION): inactive; negative
- mutagenic call (Strain/Indicator: TA7002, Metabolic Activation: RAT LIVER S-9, 3-METHYLCHOLANTHRENE (15%), Method: PREINCUBATION): active; positive
- mutagenic call (Strain/Indicator: TA7003, Metabolic Activation: NONE, Method: PREINCUBATION): inactive; negative
- mutagenic call (Strain/Indicator: TA7003, Metabolic Activation: RAT LIVER S-9, 3-METHYLCHOLANTHRENE (15%), Method: PREINCUBATION): inactive; negative
- mutagenic call (Strain/Indicator: TA7004, Metabolic Activation: RAT LIVER S-9, 3-METHYLCHOLANTHRENE (15%), Method: PREINCUBATION): active; positive
- mutagenic call (Strain/Indicator: TA7005, Metabolic Activation: RAT LIVER S-9, 3-METHYLCHOLANTHRENE (15%), Method: PREINCUBATION): active; positive
- mutagenic call (Strain/Indicator: TA7006, Metabolic Activation: NONE, Method: PREINCUBATION): inactive; negative
- mutagenic call (Strain/Indicator: TA7006, Metabolic Activation: RAT LIVER S-9, 3-METHYLCHOLANTHRENE (15%), Method: PREINCUBATION): active; positive

Compound: CC/C=C1\OC(=O)c2ccccc21
- mutagenic call (Strain/Indicator: TA97, Metabolic Activation: HAMSTER, LIVER, S-9, AROCLOR 1254 (10%), Method: PREINCUBATION): inactive; negative
- mutagenic call (Strain/Indicator: TA97, Metabolic Activation: NONE, Method: PREINCUBATION): inactive; negative
- mutagenic call (Strain/Indicator: TA97, Metabolic Activation: RAT, LIVER, S-9, AROCLOR 1254 (10%), Method: PREINCUBATION): inactive; negative
- mutagenic call (Strain/Indicator: TA98, Metabolic Activation: HAMSTER, LIVER, S-9, AROCLOR 1254 (10%), Method: PREINCUBATION): inactive; negative
- mutagenic call [1]: inactive; negative
- mutagenic call (Strain/Indicator: TA98, Metabolic Activation: RAT, LIVER, S-9, AROCLOR 1254 (10%), Method: PREINCUBATION): inactive; negative
- mutagenic call (Strain/Indicator: TA100, Metabolic Activation: HAMSTER, LIVER, S-9, AROCLOR 1254 (10%), Method: PREINCUBATION): inactive; negative
- mutagenic call [2]: inactive; negative
- mutagenic call (Strain/Indicator: TA100, Metabolic Activation: RAT, LIVER, S-9, AROCLOR 1254 (10%), Method: PREINCUBATION): active; positive
- mutagenic call (Strain/Indicator: TA1535, Metabolic Activation: HAMSTER, LIVER, S-9, AROCLOR 1254 (10%), Method: PREINCUBATION): inactive; negative
- mutagenic call (Strain/Indicator: TA1535, Metabolic Activation: NONE, Method: PREINCUBATION): inactive; negative
- mutagenic call (Strain/Indicator: TA1535, Metabolic Activation: RAT, LIVER, S-9, AROCLOR 1254 (10%), Method: PREINCUBATION): inactive; negative

From PubChem BioAssay AID1259407 (Chemical Carcinogenesis Research Information System (CCRIS), 2018)
